Assay results as given in the Deep4Chem optical property database.
Values joined by “and” are separate entries in the source; they are usually repeats but may differ in a detail not shown here. Equal entries are not always repeated. Each block holds one compound with its values, some of them ahead of it.

Assay: solvent given as SMILES

emission maximum (in ClCCl): 424 nm
SMILES: C(S/C=C/c1ccc(/C=C/SC=C2CCCC2)cc1)=C1CCCC1

emission maximum (in CCO): 426.44 nm
SMILES: c1ccc2cc3cnccc3cc2c1

emission maximum (in ClC(Cl)Cl): 553 nm
SMILES: Oc1cccc(C2=[N+]3C(=C(c4ccccc4)c4cccn4[B-]3(F)F)C=C2)c1

emission maximum (in O): 413 nm
SMILES: COc1cc(/C=C/C(=O)O)ccc1O

emission maximum (in ClC(Cl)Cl): 544 nm
emission maximum (in ClCCl): 578 nm
SMILES: COc1cc2cc(OC)c(-c3ccc([N+](=O)[O-])cc3)cc2cc1-c1ccc([N+](=O)[O-])cc1

emission maximum (in ClCCl): 495 nm
SMILES: COC(=O)C1=C(C(=O)OC)[Se](=O)[C@]23C1=C[C@H](c1ccccc12)c1ccccc13 (stereo not given in full)

emission maximum (in ClC(Cl)Cl): 446 nm
SMILES: COc1cc(OC)c2cc(-c3ccc(-c4cc5c(OC)cc(OC)cc5oc4=O)cc3)c(=O)oc2c1

emission maximum (in CC#N): 607 nm
emission maximum (in ClCCl): 603 nm
SMILES: CCN(CC)c1ccc(/N=N/c2nc3ccc([N+](=O)[O-])cc3s2)cc1

emission maximum (in CCO): 567 nm
emission maximum (in O): 574 nm
SMILES: CN(C)c1ccc2c(-c3cc(N)ccc3C(=O)[O-])c3ccc(=[N+](C)C)cc-3oc2c1

emission maximum (in ClCCl): 401 nm
SMILES: COC(=O)c1c(-c2cc3ccccc3oc2=O)nn(-c2cccc(C)c2)c1C(=O)OC

emission maximum (in ClCCl): 520 nm
SMILES: COC(=O)C1=C(C(=O)OC)C2(c3ccccc3-c3c(Br)cc(Br)cc32)C2(/C=C/c3ccc(Cl)cc3)c3cc(OC)c(OC)cc3CCN12 (stereo not given)

emission maximum (in CC#N): 412 nm
emission maximum (in CCCCCC): 405 nm
emission maximum (in CCO): 410 nm
emission maximum (in CN(C)C=O): 396 nm
emission maximum (in ClC(Cl)Cl): 411 nm
SMILES: COc1ccc(-n2nc(C(=O)N3CCCC3)c(N3CCCC3)n2)cc1

emission maximum (in C1CCCCC1): 424 nm
emission maximum (in CC#N): 568 nm
emission maximum (in CC(C)O): 585.02 nm
emission maximum (in CO): 629 nm
emission maximum (in CS(C)=O): 569.23 nm
emission maximum (in ClC(Cl)Cl): 506 nm
emission maximum (in c1ccccc1): 474.9 nm
SMILES: CC(=O)c1ccc(-c2nc3ccc(N(C)C)c(Cl)c3s2)cc1

emission maximum (in CC#N): 487 nm
SMILES: O=C1C(=Cc2ccc(Br)cc2)Oc2cccc(O)c21

emission maximum (in C1COCCO1): 471 nm
emission maximum (in CC#N): 475 nm
emission maximum (in CCO): 477 nm
emission maximum (in CCOC(C)=O): 472 nm
emission maximum (in O): 477 nm
SMILES: CN1C(=O)/C(=C/c2ccncc2)N=C1c1ccccc1

Continued, compound first:

SMILES: C(=C\c1nc(/C=C/c2ccc(N(c3ccccc3)c3ccccc3)cc2)cc(/C=C/c2ccc(N(c3ccccc3)c3ccccc3)cc2)n1)/c1ccccc1
emission maximum (in C1CCOC1): 520 nm
emission maximum (in CC#N): 591 nm
emission maximum (in CC(C)=O): 563 nm
emission maximum (in CCCCCCC): 464 nm
emission maximum (in CS(C)=O): 596 nm
emission maximum (in Cc1ccccc1): 482 nm
emission maximum (in ClCCl): 551 nm

SMILES: CCCCOc1c(C#N)cc2cc(C#N)c(OCCCC)c3c4c(OCCCC)c(C#N)cc5cc(C#N)c(OCCCC)c(c1c23)c54
emission maximum (in ClCCl): 514 nm

SMILES: CCCCCCCCCCCCOc1ccc(C#CC(C#Cc2ccc(OCCCCCCCCCCCC)cc2)=Cc2cc(C=C(C#Cc3ccc(OCCCCCCCCCCCC)cc3)C#Cc3ccc(OCCCCCCCCCCCC)cc3)cc(C=C(C#Cc3ccc(OCCCCCCCCCCCC)cc3)C#Cc3ccc(OCCCCCCCCCCCC)cc3)c2)cc1
emission maximum (in CCOC(C)=O): 428 nm

SMILES: Cc1cc(C)c(C2=C3C=CC=[N+]3[B-]3(c4ccccc4)Oc4cc(O)cc5c6ccc(C)cc6c6cc2n3c6c45)c(C)c1 (stereo not given)
emission maximum (in ClC(Cl)Cl): 669 nm

SMILES: COc1ccc(-n2c3ccccc3c3cc(C=C(C#N)C#N)ccc32)cc1
emission maximum (in C1CCOC1): 499 nm
emission maximum (in CC#N): 536 nm
emission maximum (in CC(C)=O): 525 nm
emission maximum (in CCOC(C)=O): 495 nm
emission maximum (in CO): 534 nm
emission maximum (in CS(C)=O): 547 nm
emission maximum (in Cc1ccccc1): 450 nm
emission maximum (in ClC(Cl)Cl): 511 nm

SMILES: COc1cc2c(cc1OC)C1=C[C@H](c3ccc(C)cc3)C3(C(C#N)=C(C#N)N1CC2)c1cc(Cl)ccc1-c1ccc(Cl)cc13
emission maximum (in ClCCl): 402 nm

SMILES: COCCOCCOCCOCC(COCCOCCOCCOC)Oc1cc(/C=C/c2ccc(/C=C(\C#N)c3ccncc3)cc2)c(OC(COCCOCCOCCOC)COCCOCCOCCOC)cc1/C=C/c1ccc(/C=C(\C#N)c2ccncc2)cc1
emission maximum (in ClCCl): 574 nm

SMILES: CC(C)[Si](C#Cc1ccc(C#C[Si](C(C)C)(C(C)C)C(C)C)c2nc3c(nc12)C1c2ccccc2C3c2ccccc21)(C(C)C)C(C)C
emission maximum (in CCCCCC): 404 nm

SMILES: c1ccc(N(c2ccccc2)c2ccc(-c3ncc(-c4ccc(-c5cnc(-c6ccc(N(c7ccccc7)c7ccccc7)cc6)s5)s4)s3)cc2)cc1
emission maximum (in CO): 503 nm

SMILES: Cc1cc(C)c(C)c(B(c2c(C)c(C)c(N3c4ccccc4Oc4ccccc43)c(C)c2C)c2c(C)c(C)c(N3c4ccccc4Oc4ccccc43)c(C)c2C)c1C
emission maximum (in CC(C)(C)c1ccc(-n2c3ccc([Si](c4ccccc4)(c4ccccc4)c4ccccc4)cc3c3cc([Si](c4ccccc4)(c4ccccc4)c4ccccc4)ccc32)cc1): 484 nm

SMILES: c1ccc(-c2cc(-c3nnc(-c4ccc(N5c6ccccc6Oc6ccccc65)cc4)o3)c(-c3ccccc3)c(-c3ccccc3)c2-c2ccccc2)cc1
emission maximum (in Cc1ccccc1): 495 nm
emission maximum (in c1ccc(-n2c(-c3c(-n4c5ccccc5c5ccccc54)cccc3-n3c4ccccc4c4ccccc43)nc3ccccc32)cc1): 495 nm

SMILES: CC(C)(C)c1ccc(C#Cc2c(C#Cc3ccc(C(C)(C)C)cc3)c3cccc4c(C#Cc5ccc(C(C)(C)C)cc5)c(C#Cc5ccc(C(C)(C)C)cc5)c5cccc2c5c34)cc1
emission maximum (in ClCCl): 443 nm

SMILES: CCCCN1C(=O)c2cccc3c(OC)ccc(c23)C1=O
emission maximum (in Cc1ccccc1): 422 nm

SMILES: C1=Cc2ccccc2Cc2ccccc21
emission maximum (in CC#N): 383 nm
emission maximum (in CO): 380 nm

SMILES: O=P1(c2ccccc2)C2=C(c3ccccc31)S(=O)(=O)c1ccccc12 (stereo not given)
emission maximum (in C1CCCCC1): 453 nm
emission maximum (in CC#N): 465 nm
emission maximum (in CCO): 471 nm
emission maximum (in ClCCl): 466 nm

SMILES: CNc1cc2nc3cc(Cl)c(Cl)cc3nc2cc1NC
emission maximum (in CCO): 541 nm

SMILES: c1ccc(-c2nc(-c3ccc(-c4nc(-c5ccccc5)c(-c5ccccc5)[nH]4)cc3)[nH]c2-c2ccccc2)cc1
emission maximum (in C1CCOC1): 421 nm
emission maximum (in CC#N): 423.5 nm and 424 nm
emission maximum (in CC(=O)O): 482 nm
emission maximum (in CC(C)=O): 420 nm
emission maximum (in CCOC(C)=O): 420 nm
emission maximum (in CCOCC): 419 nm
emission maximum (in CO): 417 nm
emission maximum (in CS(C)=O): 410 nm
emission maximum (in ClC(Cl)Cl): 437 nm

SMILES: N#Cc1cc(-n2c3ccccc3c3cccnc32)c(-n2c3ccccc3c3cccnc32)cc1C#N
emission maximum (in CC#N): 504.42 nm
emission maximum (in CCCCCC): 386.98 nm
emission maximum (in Cc1ccccc1): 417.44 nm
emission maximum (in ClCCl): 468.37 nm
emission maximum (in c1cc(-n2c3ccccc3c3ccccc32)cc(-n2c3ccccc3c3ccccc32)c1): 441.06 nm

SMILES: CCCCCCCCN1C(=O)c2ccc3c4c(-c5ccc(-n6c7ccccc7c7ccccc76)cc5)cc5c6c(cc(-c7ccc(-n8c9ccccc9c9ccccc98)cc7)c(c7ccc(c2c37)C1=O)c64)C(=O)N(CCCCCCCC)C5=O
emission maximum (in ClC(Cl)Cl): 651 nm

SMILES: C(#Cc1cc2ccc3cccc4ccc(c1)c2c34)c1ccccc1
emission maximum (in Cc1ccccc1): 399 nm

SMILES: CC(C)Nc1cc2oc3cc(NC(C)C)c(F)cc3c(=O)c2cc1F
emission maximum (in CCO): 422 nm

SMILES: c1ccc(-c2c3ccccc3nc3cc4ccccc4cc23)cc1
emission maximum (in ClCCl): 525 nm

SMILES: Cc1cc(C#Cc2ccccc2)c2ccc3c(C#Cc4ccccc4)cc(C#Cc4ccccc4)c4ccc1c2c43
emission maximum (in CS(C)=O): 461 nm
emission maximum (in ClC(Cl)(Cl)Cl): 460 nm

SMILES: CCCCN1c2ccccc2Sc2cc(/C=C/C3=Nc4ccc5ccccc5c4C3(C)C)ccc21
emission maximum (in C1CCCCC1): 517 nm
emission maximum (in C1CCOC1): 571 nm
emission maximum (in C1COCCO1): 562 nm
emission maximum (in CC#N): 610 nm
emission maximum (in CC(C)=O): 598 nm
emission maximum (in CC(C)O): 602 nm
emission maximum (in CCOC(C)=O): 564 nm
emission maximum (in CCOCC): 546 nm
emission maximum (in CO): 635 nm
emission maximum (in CS(C)=O): 612 nm
emission maximum (in Cc1ccccc1): 550 nm
emission maximum (in ClCCl): 595 nm

SMILES: CC1=C(C2=C(C)C(C)=[N+]3C2=Cc2cc(C)c(C)n2[B-]3(F)F)C2=Cc3cc(C)c(C)n3[B-](F)(F)[N+]2=C1C
emission maximum (in ClCCl): 598 nm

SMILES: N#Cc1cc2ccc([O-])cc2oc1=O
emission maximum (in O): 450 nm
